PubChem BioAssay (NCI)
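In this assay, cells in 96-well plates receive the compound at five concentrations for 48 hours. Endpoints are linearly interpolated between the surrounding concentrations. Definition used: TGI = concentration required for complete inhibition of growth.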 *1 amine or outer side, *2 acyl side, *3 side chain or, on linkers, in order; H or OH if unused. Where a SMILES comes first, the peptide text is derived from it. Bridges are numbered along the chain shown (N, C = ends). [ ]: non-standard residue; d: D form. The star is where a group is joined. X38 = CC[C@H](C)[C@@H](N[*:1])[C@@H](O)CC(=O)[*:2]; NMeY = CN[C@@H](Cc1ccc(O)cc1)C(=O)O; dNMeL = CN[C@H](CC(C)C)C(=O)O; Hiv = CC(C)[C@H](O)C(=O)O; Pyruvoyl = CC(=O)C(=O)*

Columns and labels:
Test in all cases: growth of human tumour cells (NCI), 48 h
MCF7 breast = test system: MCF7 breast
HT29 colon = test system: HT29 colon
NCI-H23 lung = test system: NCI-H23 lung
MOLT-4 leukemia = test system: MOLT-4 leukemia
SF-295 CNS = test system: SF-295 CNS
HS 578T breast = test system: HS 578T breast
UO-31 renal = test system: UO-31 renal
M14 melanoma = test system: M14 melanoma
UACC-257 melanoma = test system: UACC-257 melanoma
HCC-2998 colon = test system: HCC-2998 colon
SN12C renal = test system: SN12C renal
HCT-116 colon = test system: HCT-116 colon
DU-145 prostate = test system: DU-145 prostate
KM12 colon = test system: KM12 colon
SK-OV-3 ovarian = test system: SK-OV-3 ovarian
HOP-62 NSCLC = test system: HOP-62 NSCLC
NCI/ADR-RES ovarian = test system: NCI/ADR-RES ovarian
EKVX NSCLC = test system: EKVX NSCLC
OVCAR-5 ovarian = test system: OVCAR-5 ovarian
CAKI-1 renal = test system: CAKI-1 renal

SMILES | TGI (MCF7 breast) [µM] | TGI (HT29 colon) [µM] | TGI (NCI-H23 lung) [µM] | TGI (MOLT-4 leukemia) [µM] | TGI (SF-295 CNS) [µM] | TGI (HS 578T breast) [µM] | TGI (UO-31 renal) [µM] | TGI (M14 melanoma) [µM] | TGI (UACC-257 melanoma) [µM] | TGI (HCC-2998 colon) [µM] | TGI (SN12C renal) [µM] | TGI (HCT-116 colon) [µM] | TGI (DU-145 prostate) [µM] | TGI (KM12 colon) [µM] | TGI (SK-OV-3 ovarian) [µM] | TGI (HOP-62 NSCLC) [µM] | TGI (NCI/ADR-RES ovarian) [µM] | TGI (EKVX NSCLC) [µM] | TGI (OVCAR-5 ovarian) [µM] | TGI (CAKI-1 renal) [µM]
O=C(O)C1CC2C3CCC2C1C3=O (configuration not stated) | > 100 | > 100 | > 100 | > 100 | > 100 | > 100 | > 100 | > 100 | > 100 | > 100 | > 100 | > 100 | > 100 | > 100 | > 100 | > 100 | > 100 | > 100 | > 100 | > 100
CC[C@H](C)[C@H]1NC(=O)[C@@H](NC(=O)[C@@H](CC(C)C)N(C)C(=O)[C@@H]2CCCN2C(=O)C(C)=O)[C@@H](C)OC(=O)[C@H](Cc2ccc(OC)cc2)N(C)C(=O)[C@@H]2CCCN2C(=O)[C@H](CC(C)C)NC(=O)[C@H](C(C)C)OC(=O)C[C@@H]1O (Pyruvoyl-P[dNMeL]T[X38][Hiv]LP[NMeY](Me); ester 3-C) | 0.0599 | 0.0795 | 0.0421 | 0.0373 | 0.525 | 0.283 | 0.137 | 0.0261 | 0.0655 | 0.00658 | 0.0476 | 0.12 | 0.00299 | 0.151 | 0.294 | 0.0728 | 4.77 | 0.0103 | 0.167 | 1.22
O=S1(=O)c2cnccc2NC(=NCc2cccc3ccccc23)N1c1ccccc1 | > 100 | > 100 | > 100 | > 100 | > 100 | > 100 | > 100 | > 100 | > 100 | > 100 | > 100 | > 100 | > 100 | > 100 | > 100 | > 100 | > 100 | > 100 | > 100 | > 100
C[C@@]12C=CC3C/C(=N\C(N)=S)C=C(CCCC4OCCO4)[C@]3(CC1)C2 (some centres not stated) | 26.4 | 25.4 | 58.5 | 59.2 | 88 | 72.5 | 38.9 | 30.9 | 40.7 | 34.2 | 30.8 | 26.8 | 78.6 | > 100 | > 100 | 92.3 | 54.3 | 40.6 | 33.3 | 69.9
CC(C)=CCOc1cc(NC(=S)c2ccoc2C)ccc1Cl | > 100 | > 100 | > 100 | > 100 | > 100 | > 100 | > 100 |  | > 100 | > 100 | > 100 | > 100 | > 100 | > 100 | > 100 | > 100 | > 100 | > 100 | > 100 | > 100
CCOC(=O)CCC(NC(=O)Cc1ccc(Nc2nc3ccccc3nc2-c2ccccc2)cc1)C(=O)OCC (configuration not stated) | > 100 | > 100 | > 100 | > 100 | 48.4 | 74.6 | > 100 | > 100 | > 100 | > 100 | > 100 | > 100 | > 100 | > 100 | > 100 | > 100 | > 100 | > 100 | > 100 | > 100
NC(=O)C(Nc1c(Cl)cccc1Cl)c1cc2cc(Br)ccc2nc1Cl (configuration not stated) | > 100 | > 100 | > 100 | 57.6 | > 100 | > 100 | > 100 | > 100 | > 100 | > 100 | > 100 | > 100 | > 100 | > 100 | > 100 | > 100 | > 100 | > 100 | > 100 | > 100
COc1ccc(/C=C2/C(C)=NN(c3cccc(Cl)c3)/C2=N/c2nc3ccccc3s2)cc1 | 84.4 | 37.8 | 34.6 | 63.8 | 49.5 | 66.1 | 44.1 | 60.8 | 55.7 | 33.2 |  | 33.9 | 39.4 | > 100 | 63.7 | 47.2 | 71.6 | 83.1 | 69.6 | 86.6
CCCCCC(=O)Nc1n[nH]nc1C(N)=O | > 100 | > 100 | > 100 | > 100 | > 100 | > 100 | > 100 | > 100 | > 100 | > 100 | > 100 | > 100 | > 100 | > 100 | > 100 | > 100 | > 100 | > 100 | > 100 | > 100
C/C(=N\N)C(CN(C)C)C(c1ccccc1)c1c(O)c2ccccc2oc1=O (configuration not stated) | > 100 | > 100 | > 100 | > 100 | > 100 | > 100 | > 100 | > 100 | > 100 | > 100 | > 100 | > 100 | > 100 | > 100 | > 100 | > 100 | > 100 | > 100 | > 100 | > 100
COc1ccc(C2c3cc4c(cc3C(O)C3CCC(=O)N23)OCO4)cc1 (configuration not stated) | > 100 | > 100 | > 100 | > 100 | > 100 | > 100 | > 100 | > 100 | > 100 | > 100 | > 100 | > 100 | > 100 | > 100 | > 100 | > 100 | > 100 | > 100 | > 100 | > 100
O=C(NC(C(F)(F)F)(C(F)(F)F)P(=O)(c1ccccc1)c1ccccc1)C(C(F)(F)F)C(F)(F)F | 62.1 | 56 | 64.2 | > 100 | > 100 | > 100 |  | 36.3 | 82.2 | > 100 | 77 | 39.1 | > 100 | 56.8 | > 100 | > 100 | 47.9 | > 100 | > 100 | 0.0564
